From US20060160095A1, “Survivin” (EiRx Therapeutics Limited, priority 2002, published 2006)

Experiments:
Neutrophils = assay: Neutrophil survival with BAL or GM-CSF after antisense/missense oligonucleotides (Example 7); type: cell-based, human; details: oligonucleotides 0 to 10 μM
Protocol: Neutrophils are purified as normal and resuspended in culture medium (RPMI+10% FCS) to give a final conc. of 2×10^6/ml. Five hundred microlitres are added to each well of a 24 well plate, to give a final concentration of 1×10^6/well.
Either antisense or missense oligonucleotides are added directly to each well over a range of concentrations between 0 μM to 10 μM.
Cells are then incubated for time intervals between 15 mins to 8 hours. Bronchoalveolar lavage (BAL) fluid, obtained from patients with chronic inflammation, including cystic fibrosis, chronic obstructive pulmonary disease or healthy controls, is then added to each well. As a positive control for increased survival, neutrophils are treated with GM-CSF (0 to 20 units).
Neutrophil apoptosis is measured as described in Example 1.

Survivin mRNA = assay: LifeGrid microarray of Survivin transcripts in neutrophils; type: cell-based, human; details: gliotoxin added in the presence of GM-CSF
Protocol: Primary human neutrophils are isolated and purified from peripheral blood of normal healthy individuals using standard techniques. Neutrophils are resuspended in serum containing culture medium together with GM-CSF (50 U) at a concentration of 2×10^6/ml, and cultured for 0 h (control), 2 h, 4 h and 6 h at 37° C. Total RNA is then prepared from both groups using acid phenol/guanidine isothiocyanate extraction (RNAzol B; Biogenesis), or RNeasy RNA preparation kits (Qiagen). Any contaminating genomic DNA is removed by DNase treatment (DNase I, Gibco-BRL). […]
This example describes the use of a STORM Phosphoimager to quantitatively image positive signals across the filter arrays. […]
The captured image file is then analysed using software such as Array Vision (Imaging Research Inc.; See FIG. 5). […] This program contains facilities for spot detection and quantification, and background detection and quantification. […] As the data is imported to the database, a Normalisation factor is calculated and the sDENs values modified accordingly. […] A normalization factor may be derived from Linear Regression calculated by reference to housekeeping genes. Alternatively, the Global Mean is calculated as the average of the sDens values across all of the arrays to be compared and a normalisation factor is then derived by division of the overall spot density with the Global Mean value. […]

[1] = tested on: Primary human neutrophils; assay: MTT survival assay of neutrophils cultured with GM-CSF, with or without gliotoxin; type: cell-based
Protocol: Primary human neutrophils are isolated and purified from peripheral blood of normal healthy individuals. Neutrophils are resuspended in serum containing culture medium together with various amounts of GM-CSF at a density of 2×10^6/ml, with 100 μl plated into a 96 well plate and cultured for 18 h at 37° C. After this time 10 μl of MTT (5 mg/ml) is added to the cultures and incubated for a further 4 h at 37° C. before solubilisation of the purple coloured formazan with acidic isopropanol. Optical densities are read at 570 nm using a plate reader.
Primary human neutrophils are isolated and purified from peripheral blood of normal healthy individuals. Neutrophils are resuspended in serum containing culture medium containing 5 U/ml of GM-CSF at a concentration of 2×10^6/ml. […] After the indicated time, 10 μl of MTT (5 mg/ml) are added to the cultures and incubated for a further 4 h at 37° C. before solubilisation of the purple coloured formazan with acidic isopropanol. Optical densities are read at 570 nm using a plate reader.

HL60 cells = assay: DNA fragmentation by agarose gel electrophoresis in differentiated HL60 cells; type: cell-based; details: 10 μM Retinoic acid
Protocol: HL60 cells are seeded at 5×10^6cells in T25 flasks and incubated with 10 μM Retinoic acid for 24, 48, 72, 96, 120 and 144 hrs. Mock treated HL-60 cells were used as a control. Cellular DNA was analysed for fragmentation into oligonucleosomal-size fragments and their multiples by agarose gel electrophoresis. Lanes 1,3,5,7,9,11 contain DNA from HL-60 cells that were differentiated with 10 μM Retinoic Acid over the indicated period whereas samples in lanes 2,4,6,8,10,12,14 are from control HL-60 cells treated for the same time period. Lane 15 is a 1 Kb Plus Ladder Molecular Marker.

5′-CCCAgCCTTCCAgCTCCTTg-3′ (antisense 5'-CCCAgCCTTCCAgCTCCTTg-3'; as printed in the source, key not given here) [antisense Survivin oligonucleotides]
survival of neutrophils treated with BAL (Neutrophils; BAL derived from patients with chronic inflammation): inhibits the survival
survival of neutrophils treated with control cytokine GM-CSF (Neutrophils; GM-CSF as control cytokine): inhibits the survival

CN1C(=O)[C@]23CC4=CC=C[C@H](O)[C@H]4N2C(=O)[C@@]1(CO)SS3 [gliotoxin, Gliotoxin]
Increased expression of Survivin following GM-CSF treatment (Survivin mRNA): blocked
block of the GM-CSF inhibition of neutrophil apoptosis (MTT) ([1]; 0.1 μg/ml added with 5 U/ml GM-CSF): effectively blocks
neutrophil apoptosis with the compound alone (MTT) ([1]; added alone to isolated neutrophils, no GM-CSF): No increased neutrophil apoptosis

CC1=C(/C=C/C(C)=C/C=C/C(C)=C/C(=O)O)C(C)(C)CCC1 [retinoic acid, Retinoic acid]
onset of apoptosis after differentiation (HL60 cells): ~4 days
